Test results from patent US20250388597A1, “BIFUNCTIONAL PHOTOCROSSLINKING PROBES FOR COVALENT CAPTURE OF PROTEIN-NUCLEIC ACID COMPLEXES IN CELLS” (UNIVERSITY OF SOUTHERN CALIFORNIA, priority 2022, published 2025).
“Also recorded” adds a separate entry of the source.

What was measured:
[1] = target: T1, NFAT1/DNA complex (Homo sapiens, UniProt Q13469); assay: In vitro photo-crosslinking of assembled NFAT1/DNA complex, denaturing SDS gel; format: biochemical; details: for formation of covalent NFAT1/DNA crosslinked complex stable under denaturing SDS-PAGE: probe + UV 365 nm, 2% SDS, boil 10 min
T1 construct: human NFAT1 protein (residue 399-676, NFAT1-DBD)
T1 sequence (Q13469 399-676): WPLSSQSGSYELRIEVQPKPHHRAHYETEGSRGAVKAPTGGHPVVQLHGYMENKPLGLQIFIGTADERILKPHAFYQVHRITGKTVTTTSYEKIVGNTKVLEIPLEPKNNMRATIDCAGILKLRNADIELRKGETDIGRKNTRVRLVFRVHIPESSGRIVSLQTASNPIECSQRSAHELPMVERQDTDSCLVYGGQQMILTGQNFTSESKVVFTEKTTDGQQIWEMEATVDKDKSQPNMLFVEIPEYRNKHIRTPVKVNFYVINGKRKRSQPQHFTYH
Description: The probe binding and UV crosslinking were carried out as described in FIG. 5G and FIG. 7. The crosslinked complexes (lane 3 and lane 6) were further treated with DTT (100 mM, heat 50 degree C. for 30 min). The reaction mixtures were run on SDS gel and visualized by FAM fluorescence for DNA (top) and by Coomassie blue stain for protein (bottom) as described in FIG. 7. FIG. 7 depicts denaturing SDS gel analysis of covalent capture of in vitro assembled MEF2/DNA and NFAT1/DNA complexes by the BFPX probe, SPB-AAD. […] The protein/DNA complexes are incubated at room temperature for 30 min, and treated with various combination of BFPX probe (SPB-AAD) and UV illumination as described in FIG. 5G. […] The reaction mixtures were added SDS loading dye (2% SDS), boil for 10 min, and run on SDS gel (Bio-Rad Any Kd gradient gel). The same gel was visualized by FAM fluorescence for DNA (top) and by Coomassie blue stain for protein (bottom). FIG. 8C depicts denaturing SDS gel analysis of covalent capture of in vitro assembled MEF2/DNA and NFAT1/DNA complexes by the BFPX probe, SPB-PEG3-AAD. […] The reaction mixtures were run on SDS gel and visualized by FAM fluorescence for DNA (top) and by Coomassie blue stain for protein (bottom) as described in FIG. 7. […] Typically protein and DNA are mixed to bind at room temperature for 30 min, followed by addition of BFPX probes for an additional 15 min and then UV illumination. In the case of FA treatment, the reaction time is 10 min at room temperature and then quenched by 250 mM glycine. […] The UV illumination (as indicated by a positive sign) was carried out using a LED Chip (21.4 mm×21.4 mm, 365-370 nm, 30 Watt, sample distance 2 cm, exposure time 2-15 min at 4 degree C., here the exposure time is 15 min). […] The small amount of single stranded DNA is due to incomplete annealing. The higher smearing bands are most likely non-specific protein complexes. Neither of these experimental imperfections affected the main conclusion of this experiment because the double stranded-DNA bands and the specific NFAT-DNA complex bands (the middle sharp bands) are well defined and can be monitored without the interference of the other bands. […] The gel was visualized by Cy5 fluorescence for DNA. FIG. 12E depicts further characterization of BFPX crosslinking of NFAT1/DNA complexes using different DNA substrates and staining techniques. Two unlabeled DNA substrates containing a core NFAT-binding site and different flanking bases and sequence lengths ([…] ID NO: 4), 21 mer, c2: [NT] ID NO: 5), 16 mer) were used to bind the NFAT1-DBD as described in FIG. 12C. […] The reactions were then analyzed by SDS PAGE under denaturing condition as described in FIG. 12D. Because the DNA is unlabeled, the gel was stained using either cyanine-based dye (SYBR Safe) or Coomassie Blue stain (CB). […] The different size of the NFAT-c1DNA complexes (lane 2) and NFAT-c2DNA complexes (lane 4) was resolved by loading reactions of lane 2 (2a, 2b and 2c) and lane 4 (4a, 4b and 4c) as triplicates side-by-side on the same gel (lower panel) using either SYBR and CB stain. FIG. 12F depicts time course of BFPX crosslinking of NFAT1/DNA complexes. […] The reactions at different time points were then analyzed on SDS gel as described in FIG. 12D. […] When the UV exposure time is longer than 5 min, a significant amount of crosslinked NFAT-DNA complex can be formed with UV illumination without SPB-AAD.

[2] = target: T2, p53/DNA complex (Homo sapiens, UniProt P04637); assay: BFPX crosslinking of p53/DNA complexes, SDS PAGE; format: biochemical; details: denaturing SDS PAGE; probes with UV; vs no-protein controls
T2 construct: the human tumor suppressor p53 DBD; made in house
Description: FIG. 12I depicts BFPX crosslinking of p53/DNA complexes. The binding reactions between the human tumor suppressor p53 DBD and a 37 mer Cy5 labeled DNA containing a consensus p53 tetramer binding site (5′-/5Cy5/-[…]-3′, (SEQ ID NO: 8)) were set up and treated with BFPX probes and UV illumination as described in FIG. 12C. The various treatment combinations were list above the gel. The reactions were then analyzed by SDS PAGE under denaturing condition as described in FIG. 12D. […] Because p53 bind this this DNA substrate as a tetramer, crosslinked p53/DNA complexes may contain one or more p53 protein molecules. While the monomeric p53/DNA complex appears to be the dominant crosslinked protein-DNA complexes, higher-molecule weight species were visible in SDS gel, which may correspond to crosslinked higher-order p53/DNA complex.

[3] = target: T3, Nkx2.5/DNA complex (Homo sapiens, UniProt P52952); assay: BFPX crosslinking of Nkx2.5/DNA complexes, SDS PAGE; format: biochemical; details: denaturing SDS PAGE; probes with UV
T3 construct: human Nkx2.5 DBD (the homeodomain); made in house
Description: FIG. 12H depicts BFPX crosslinking of Nkx2.5/DNA complexes. […] The various treatment combinations were list above the gel. The reactions were then analyzed by SDS PAGE under denaturing condition as described in FIG. 12D.

[4] = target: T4, DNA binding by NFAT1 (Homo sapiens, UniProt Q13469); assay: Native EMSA of the effect on DNA binding by NFAT1; format: biochemical; details: FIG. 12C; increasing concentrations; probes with UV 365 nm 15 min; compared to control lane 3
T4 construct: human NFAT1 protein (residue 399-676, NFAT1-DBD)
T4 sequence (Q13469 399-676): T1 sequence (Q13469 399-676)
Description: All binding reactions contain 10 μM 27 mer dsDNA (5′6-FAM labeled) with a NFAT-binding site, and various combinations of NFAT1 protein (14 μM), FA (1% v/v), 4AMT-LC-SDA (20 μM), with or without UV illumination (365 nm, LED, 30 Watt, sample distance 2 cm, exposure time 15 min at 4 degree C.). 10 μl of the binding reaction is run on a 10% PAGE 0.5×TBE gel. The same gel was visualized by FAM fluorescence for DNA (top) and by Coomassie blue stain for protein (bottom). The higher smearing bands in lane 3, 8, 9, and 10 are most likely non-specific protein complexes often seen when an excessive amount of protein is used to ensure all DNA is bound.
The binding reactions were performed in a buffer of 20 mM Hepes pH 7.6, 150 mM NaCl, 1 mM DTT, 12% glycerol. Typically protein and DNA are mixed to bind at room temperature for 30 min, followed by addition of BFPX probes for an additional 15 min and then UV illumination. In the case of FA treatment, the reaction time is 10 min at room temperature and then quenched by 250 mM glycine. When included (as indicated by a positive sign), the binding reaction contains 10 μM 27 mer dsDNA (Cy5-labeled) with a NFAT-binding site (the antigen receptor response element 2, ARRE2, from the IL-2 promoter, 5′-Cy5-[sequence]-3′ (SEQ ID NO: 2), the complementary strand is not labeled), 24 μM of the DNA binding domain (DBD) of human NFAT1 protein (residue 399-676, NFAT1-DBD). The UV illumination (as indicated by a positive sign) was carried out using a LED Chip (21.4 mm×21.4 mm, 365-370 nm, 30 Watt, sample distance 2 cm, exposure time 2-15 min at 4 degree C., here the exposure time is 15 min). Half of the binding reaction (7.5 μl) was run on a 10% PAGE 0.5×TBE gel and visualized by Cy5 fluorescence on DNA. The small amount of single stranded DNA is due to incomplete annealing. The higher smearing bands are most likely non-specific protein complexes. Neither of these experimental imperfections affected the main conclusion of this experiment because the double stranded-DNA bands and the specific NFAT-DNA complex bands (the middle sharp bands) are well defined and can be monitored without the interference of the other bands.
The presence of both DNA and protein in the same shifted band can be checked by the FAM fluorescence signal (top) and Coomassie stain (bottom), respectively (free NFAT is positively charged and not observable under the EMSA condition).

[5] = target: T5, MEF2A/DNA complex (Homo sapiens, UniProt Q02078); assay: In vitro photo-crosslinking of assembled MEF2/DNA complex, read on denaturing SDS/urea gel or agarose gel; format: biochemical
T5 construct: human MEF2A DBD (residues 2-95); made in house
T5 sequence (Q02078 2-95): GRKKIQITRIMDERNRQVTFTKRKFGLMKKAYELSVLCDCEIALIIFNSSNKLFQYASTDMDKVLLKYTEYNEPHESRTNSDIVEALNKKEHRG
From the text: In vitro assays have confirmed the success and the efficiency of the demo probe (AMT-LC-SDA) in crosslinking double strand DNA of various contents and DNA-binding protein human myocyte enhancer factor 2A (MEF2A) (1-95 aa) (FIG. 5C-FIG. 5E). The solid crosslinking is confirmed for the probe with UV photo crosslinking conditions by denaturing or digestive approaches such as running with 8.3 M urea gel, SDS gel, combined with sample with overnight digestion of proteinase K at 65 Celsius and denatured at high temperature of 95 Celsius with SDS loading dye. […] Under these harsh evaluation conditions, the protein got digested on the crosslinking complex thoroughly, yet the remaining crosslinked amino acids residuals still have made the DNA to be in a larger size and shifted clearly compared to other controls, which is indicated by the bold shaped arrow. Agarose gel was also used for its bigger pore size to estimate the crosslinking efficiency (UV 2 hrs), estimated by the amount of the left free DNA, our probe has reached around 30-60% efficiency (FIG. 5E), which is much higher than the UV-initiated protein DNA crosslinking without the use of a probe (10-20%) as reported in Nature Communications, volume 11, Article number: 3019 (2020). […] This further supports the idea of applying this probe for replacement of formaldehyde, it crosslinks the protein only within the proximity of nucleic acids, thereby largely reducing the random protein-protein crosslinking noise and helps to preserve the native state of protein epitopes.
The BFPX probe 4AMT-LC-SDA was synthesized with good yield by the NHS-amine chemistry using psoralen and diazirine derivatives (FIG. 5A, FIG. 5B). To test its photo crosslinking ability, human transcription factor MEF2A (the MADS-box/MEF2 domain) and double strand DNA containing a MEF2 binding site were used. We first used electrophoresis mobility shift assay (EMSA) to validate the activity of the purified recombinant MEF2A DNA-binding domain. After finding out the optimal protein to DNA ratio, the in vitro assembled MEF2/DNA complex was then subject to photocrosslinking in the presence or absence of the 4AMT-LC-SDA probe with or without UV illumination. Multiple other control experiments were carried out in parallel to test the specificity of photocrosslinking between the DNA and MEF2. Specifically, parameters such as protein/DNA amounts (1:[…]), ratio, UV time (10 m to 4 hrs), wavelength (320 to 360 nm), LV source (mercury long lamp, LED) and their distance to the reaction mixture have been optimized along the course. The MEF2 Protein and DNA were incubated first to mimic an in vivo binding mode and stoichiometry, and then the mixture was incubated with our 4AMT-LC-SDA probe to undergo UV illumination. The results were evaluated by running denaturing gels (SDS in FIG. 5D, or Urea in FIG. 5C) against the high temperature denatured reaction mixtures and checking the respective protein (silver stain) or DNA (FAM label) signals. To further rule out any other possible false positiveness during loading, proteinase K digestion was applied to all the samples including the negative controls with SDS at 65 degrees.

[6] = target: double stranded DNA and RNA; details: cited from earlier work; for efficiency of covalent crosslinking to DNA: long-wavelength (˜360 nm) UV illumination
[7] = target: T6, NFAT1 DNA binding domain (Homo sapiens, UniProt Q13469 Q13469:399-676); assay: SPB-AAD 100 uM + UV365 photocrosslinking, SDS-PAGE
T6 sequence: T1 sequence (Q13469 399-676)
Description: The UV illumination (as indicated by a positive sign) was carried out using a LED Chip (21.4 mm×21.4 mm, 365-370 nm, 30 Watt, sample distance 2 cm, exposure time 2-15 min at 4 degree C., here the exposure time is 15 min). Half of the binding reaction (7.5 μl) was run on a 10% PAGE 0.5×TBE gel and visualized by Cy5 fluorescence on DNA. The small amount of single stranded DNA is due to incomplete annealing. The higher smearing bands are most likely non-specific protein complexes. Neither of these experimental imperfections affected the main conclusion of this experiment because the double stranded-DNA bands and the specific NFAT-DNA complex bands (the middle sharp bands) are well defined and can be monitored without the interference of the other bands.
FIG. 12D depicts the other half of binding reaction from the above experiments (FIG. 12C) were added SDS loading dye (2% SDS), boil for 10 min, and run on SDS gel (4-15% gradient gel). The gel was visualized by Cy5 fluorescence for DNA.
FIG. 12E depicts further characterization of BFPX crosslinking of NFAT1/DNA complexes using different DNA substrates and staining techniques. […] The reactions were then analyzed by SDS PAGE under denaturing condition as described in FIG. 12D. […]

T3 sequence (P52952 138-197 limits assumed, one chain of several): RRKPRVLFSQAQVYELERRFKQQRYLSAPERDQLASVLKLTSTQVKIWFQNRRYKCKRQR
T2 sequence (P04637 102-292 limits assumed, one chain of several): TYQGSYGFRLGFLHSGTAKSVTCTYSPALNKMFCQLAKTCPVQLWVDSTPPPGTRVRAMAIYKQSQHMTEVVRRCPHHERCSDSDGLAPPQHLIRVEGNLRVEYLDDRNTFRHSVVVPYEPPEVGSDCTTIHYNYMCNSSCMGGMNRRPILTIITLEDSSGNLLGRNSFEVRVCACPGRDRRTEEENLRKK

## CC1(CCC(=O)NCCCCCC(=O)NCCCCNCCCNC(=O)CCCOc2c3occc3cc3ccc(=O)oc23)N=N1 [SPB-Spermidine-AD, 6-(3-(3-methyl-3H-diazirin-3-yl)propanamido)-N-(4-((3-(4-((7-oxo-7H-furo[3,2-g]chromen-9-yl)oxy)butanamido)propyl)amino)butyl)hexanamide]
[1]
  apparent crosslinking efficiency (intensity of the complex band over the total DNA intensity): 22.5%
  crosslinking efficiency normalized against the total protein/DNA complex: ~47%
  formation of covalent NFAT1/DNA crosslinked complex stable under denaturing SDS-PAGE: dosage dependent crosslinking of NFAT1/DNA complexes
[2]
  crosslinking of the p53/DNA complex: significant crosslinking of the p53/DNA complex
[3]
  crosslinking of the Nkx2.5/DNA complex: significant crosslinking of the Nkx2.5/DNA complex
[4]
  effect on the binding of NFAT1 to DNA: little or no effect

## Cc1oc2c(C)c3oc(=O)cc(C)c3cc2c1CNC(=O)CCSSCCNC(=O)CCC1(C)N=N1 [4AMT-SDAD]
[1]; 25 μM probe, DTT 100 mM, 50 degree C., 30 min, FIG. 5H
  effect of DTT treatment on the crosslinked NFAT-DNA complex: reduced significantly
[1]; listed as 4AMT-LC-SDAD
  formation of covalent NFAT1/DNA crosslinked complex stable under denaturing SDS-PAGE: highly efficient crosslinking; also recorded: crosslinked NFAT to its DNA substrate efficiently
[5]; probe 10-100 μM, UV 15 min, 200 mM TCEP at 37° C. overnight
  release of crosslinked MEF2/DNA complexes by reductive cleavage: can be released by reductive cleavage of the disulfide bond
[5]; probe + UV, denaturing gel
  formation of covalent MEF2/DNA crosslinked complex: highly efficient crosslinking

## O=c1ccc2cc3ccoc3cc2o1 [Psoralen, psoralen]
[6]
  affinity for double stranded DNA and RNA: μM (Kd) affinity
  efficiency of covalent crosslinking to DNA: up to 80%

## Cc1oc2c(C)c3oc(=O)cc(C)c3cc2c1CN [4AMT, 4′-aminomethyltrioxsalen]
[6]
  efficiency of covalent crosslinking to DNA: up to 80%

B1: c1 NFAT 21-mer (dsDNA)
DNA 1: TTCCACAGAGGAAAATTTGTT
DNA 2: AACAAATTTTCCTCTGTGGAA
[7]
  binding result: binds
